Data as given in patent publication US12275688B2, “Crystalline solids of MEK inhibitor N-((R)-2,3-dihydroxypropoxy)-3,4-difluoro-2-(2-fluoro-4-iodo-phenylamino)-benzamide and uses thereof” (SpringWorks Therapeutics, Inc., priority 2021, dated 2025).
≈ marks a conversion by molar mass, not a printed value. Entries after “also recorded” stand apart in the source; their conditions may differ. Where two headings read alike, the source gives them in different places.

Assays:
Type in all cases: physicochemical
[1] = Physical stability of amorphous mirdametinib on storage (PXRD, PLM)
Experimental: Solutions of mirdametinib (100 mg/mL) were prepared in methanol and THF, and each solution was divided into three equal parts to be used for 1) open at RT stability evaluation, 2) closed at RT stability evaluation, and 3) closed at −20° C. stability evaluation.
PXRD analyses of all six samples (three from both methanol and THF) following rapid evaporation indicated an amorphous state. Other analyses (e.g. PLM, TGA-IR, DSC) were performed on one sample from each solvent. Following initial analyses, one sample from each solvent was stored at RT in an open vial, at RT in a capped vial, and at −20° C. in a capped vial.

[2] = Solid-state stability of crystal forms at ambient conditions
Excerpt: The following sections describe and summarize the physical properties of each of the crystal forms observed for mirdametinib.

[3] = Drying of certain forms via vacuum oven at 45° C.; conditions: overnight in vacuum oven at 45° C.; PXRD at about 70% ambient lab humidity
Experimental: Drying studies for certain forms were conducted overnight in a vacuum oven at 45° C. After drying, samples were equilibrated to RT for 10 min. and analyzed by PXRD at about 70% ambient lab humidity.

[4] = Desolvation/dehydration by heating in TGA pan to 100° C.; conditions: 15° C./min from 25 to 100° C., 5 min. hold at 100° C., air-cooled to RT
Experimental: Desolvation/dehydration studies of certain forms were conducted in a TGA pan with loose lid at a heating rate of 15° C./min from 25 to 100° C. with a 5 min. hold at 100° C. Samples were air-cooled to RT on the TGA and analyzed by PXRD if crystalline. […] PXRD indicated Form I.

[5] = Approximate kinetic solubility (visual, solvent aliquot addition); conditions: thermodynamic from solid; for solubility: read-out: Solubility (mg/mL)at RT (23° C.); for solubility at 1 h: heated to 40° C. for 1 hour, read-out: Solubility (mg/mL) at 40° C.
Experimental: Solubility of mirdametinib prepared by Example 3 was assessed in 30 solvents. The solubility was visually estimated at room temperature (RT; ˜23° C.) by dosing small aliquots of solvent into a fixed amount of solid (˜10 mg) until the dissolution point or a maximum volume (1.8 mL) was reached. Samples that contained undissolved solids at RT were heated to 40° C. for 1 hour and the dissolution was assessed visually. The solubility data are shown below in Table 1.

SMILES: O=C(NOC[C@H](O)CO)c1ccc(F)c(F)c1Nc1ccc(I)cc1F [A- 2]
- Results (solid form after 1 day at ambient) [1]: Form IV

SMILES: O=C(NOC[C@H](O)CO)c1ccc(F)c(F)c1Nc1ccc(I)cc1F [Amorphous mirdametinib, N—((R)-2,3-dihydroxypropoxy)-3,4-difluoro-2-(2-fluoro-4-iodo-phenylamino)-benzamide]
- Physically stable for ([1]; open and closed vials at RT): at least 24 hours

SMILES: O=C(NOC[C@H](O)CO)c1ccc(F)c(F)c1Nc1ccc(I)cc1F [Form A-1]
- Results (solid form after 1 day at ambient) [1]: Amorphous

SMILES: O=C(NOC[C@H](O)CO)c1ccc(F)c(F)c1Nc1ccc(I)cc1F [Form A-1a]
- Solid state by PXRD and PLM after one day ([1]; open vial at RT): no crystallization

SMILES: O=C(NOC[C@H](O)CO)c1ccc(F)c(F)c1Nc1ccc(I)cc1F [Form A-1b]
- Solid state by PXRD and PLM after one day ([1]; capped vial at RT): no crystallization

SMILES: O=C(NOC[C@H](O)CO)c1ccc(F)c(F)c1Nc1ccc(I)cc1F [Form A-2a]
- Solid state by PXRD and PLM after one day ([1]; open vial at RT): crystallization to Form IV

SMILES: O=C(NOC[C@H](O)CO)c1ccc(F)c(F)c1Nc1ccc(I)cc1F [Form IX, N—((R)-2,3-dihydroxypropoxy)-3,4-difluoro-2-(2-fluoro-4-iodo-phenylamino)-benzamide]
- Conversion at ambient conditions (in words) ([2]; ambient conditions): significant conversion toward Form IV after 20 hours; also recorded: slowly convert to Form IV

SMILES: O=C(NOC[C@H](O)CO)c1ccc(F)c(F)c1Nc1ccc(I)cc1F [Form VI, N—((R)-2,3-dihydroxypropoxy)-3,4-difluoro-2-(2-fluoro-4-iodo-phenylamino)-benzamide]
- Form after vacuum oven drying (PXRD) [3]: Partially converted to Form A
- Result of desolvation/dehydration by heating [4]: melted and solidified in molten, amorphous state, possible decomposition
- Stable in solid-state at ambient conditions for ([2]; solid-state, ambient conditions): ≥ 2 weeks

SMILES: O=C(NOC[C@H](O)CO)c1ccc(F)c(F)c1Nc1ccc(I)cc1F [Form VIII, N—((R)-2,3-dihydroxypropoxy)-3,4-difluoro-2-(2-fluoro-4-iodo-phenylamino)-benzamide]
- Stable at ambient conditions for ([2]; ambient conditions): ≥ 2 days

SMILES: O=C(NOC[C@H](O)CO)c1ccc(F)c(F)c1Nc1ccc(I)cc1F [Form XIII, N—((R)-2,3-dihydroxypropoxy)-3,4-difluoro-2-(2-fluoro-4-iodo-phenylamino)-benzamide]
- Form after vacuum oven drying (PXRD) [3]: Form XIII/Form IV mixture converted to Form IV

SMILES: O=C(NOC[C@H](O)CO)c1ccc(F)c(F)c1Nc1ccc(I)cc1F [Form XIV, N—((R)-2,3-dihydroxypropoxy)-3,4-difluoro-2-(2-fluoro-4-iodo-phenylamino)-benzamide]
- Conversion at ambient conditions (in words) ([2]; ambient conditions): convert to Form IV within four days

SMILES: O=C(NOC[C@H](O)CO)c1ccc(F)c(F)c1Nc1ccc(I)cc1F [Form XIX, N—((R)-2,3-dihydroxypropoxy)-3,4-difluoro-2-(2-fluoro-4-iodo-phenylamino)-benzamide]
- Form after vacuum oven drying (PXRD) [3]: Remained unchanged
- Result of desolvation/dehydration by heating [4]: solid particles (not melted). PXRD indicated Form I
- Stable in a capped vial for ([2]; capped vial): ≥ 2 weeks

SMILES: O=C(NOC[C@H](O)CO)c1ccc(F)c(F)c1Nc1ccc(I)cc1F [Form XX, N—((R)-2,3-dihydroxypropoxy)-3,4-difluoro-2-(2-fluoro-4-iodo-phenylamino)-benzamide]
- Time to convert to Form IV at ambient conditions ([2]; ambient conditions): ≤ 10 days

SMILES: O=C(NOC[C@H](O)CO)c1ccc(F)c(F)c1Nc1ccc(I)cc1F [Form XXI, N—((R)-2,3-dihydroxypropoxy)-3,4-difluoro-2-(2-fluoro-4-iodo-phenylamino)-benzamide]
- Conversion noted under Nature of Solvate (Table 2) [2]: (converts to Form IV)

SMILES: O=C(NOC[C@H](O)CO)c1ccc(F)c(F)c1Nc1ccc(I)cc1F [mirdametinib, N—((R)-2,3-dihydroxypropoxy)-3,4-difluoro-2-(2-fluoro-4-iodo-phenylamino)-benzamide]
- solubility ([5]; 1-propanol, 23 °C, organic solvent or mixture): 101 to 202 mg/mL (≈ 209 to 419 mM)
- solubility ([5]; 2-methyl-2-butanol, 23 °C, organic solvent or mixture): 97 to 194 mg/mL (≈ 201 to 402 mM)
- solubility ([5]; 2-propanol (IPA), 23 °C, organic solvent or mixture): 98 to 196 mg/mL (≈ 203 to 406 mM)
- solubility ([5]; 23 °C, organic solvent or mixture, 2-Propanol: water (9:1 v/v)): > 400 mg/mL
- solubility ([5]; DMF (dimethylformamide), 23 °C, organic solvent or mixture): > 408 mg/mL
- solubility ([5]; Dioxane, 23 °C, organic solvent or mixture): > 408 mg/mL
- solubility ([5]; Ethanol/Water (9:1 v/v), 23 °C, organic solvent or mixture): > 424 mg/mL
- solubility ([5]; MIBK (4-methyl-2-pentanone), 23 °C, organic solvent or mixture): 48 to 95 mg/mL (≈ 99.5 to 197 mM)
- solubility ([5]; MTBE (methyl-t-butylether), 23 °C, organic solvent or mixture): < 6 mg/mL
- solubility ([5]; MeCN/Water (7:3 v/v), 23 °C, organic solvent or mixture): > 408 mg/mL
- solubility ([5]; MeCN/water (8:2 v/v), 23 °C, organic solvent or mixture): > 412 mg/mL
- solubility ([5]; acetic acid (HOAc), 23 °C, organic solvent or mixture): > 388 mg/mL
- solubility ([5]; acetone, 23 °C, organic solvent or mixture): > 400 mg/mL
- solubility ([5]; acetonitrile (MeCN), 23 °C, organic solvent or mixture): 19 to 49 mg/mL (≈ 39.4 to 102 mM)
- solubility ([5]; chloroform, 23 °C, organic solvent or mixture): < 6 mg/mL
- solubility ([5]; cyclohexane, 23 °C, organic solvent or mixture): < 6 mg/mL
- solubility ([5]; dichloromethane (DCM), 23 °C, organic solvent or mixture): < 6 mg/mL
- solubility ([5]; dimethyl sulfoxide (DMSO), 23 °C, organic solvent or mixture): > 388 mg/mL
- solubility ([5]; dimethylcarbonate (DMC), 23 °C, organic solvent or mixture): 10 to 19 mg/mL (≈ 20.7 to 39.4 mM)
- solubility ([5]; ethanol, 23 °C, organic solvent or mixture): 208 to 416 mg/mL (≈ 431 to 863 mM)
- solubility ([5]; ethanol/toluene (9:1), 23 °C, organic solvent or mixture): 210 to 420 mg/mL (≈ 436 to 871 mM)
- solubility ([5]; ethyl acetate (EtOAc), 23 °C, organic solvent or mixture): 48 to 95 mg/mL (≈ 99.5 to 197 mM)
- solubility ([5]; isopropyl ether (IPE), 23 °C, organic solvent or mixture): < 6 mg/mL
- solubility ([5]; methanol (MeOH), 23 °C, organic solvent or mixture): > 380 mg/mL
- solubility ([5]; nitromethane, 23 °C, organic solvent or mixture): 10 to 20 mg/mL (≈ 20.7 to 41.5 mM)
- solubility at 1 h ([5]; organic solvent or mixture, Chloroform): < 6 mg/mL
- solubility at 1 h ([5]; organic solvent or mixture, Cyclohexane): < 6 mg/mL
- solubility at 1 h ([5]; organic solvent or mixture, Dichloromethane (DCM)): > 6 mg/mL
- solubility at 1 h ([5]; organic solvent or mixture, Isopropyl ether (IPE)): < 6 mg/mL
- solubility at 1 h ([5]; organic solvent or mixture, MTBE (methyl-t-butylether)): > 6 mg/mL
- solubility ([5]; organic solvent or mixture, Tert-butanol (t-BuOH), solubility determined at 30° C. (footnote)): 6 to 10 mg/mL (≈ 12.4 to 20.7 mM)
- solubility at 1 h ([5]; organic solvent or mixture, Toluene): < 6 mg/mL
- solubility ([5]; tetrahydrofuran (THF), 23 °C, organic solvent or mixture): > 396 mg/mL
- solubility at 1 h ([5]; Water): < 6 mg/mL
- solubility ([5]; toluene, 23 °C, organic solvent or mixture): < 6 mg/mL
- solubility ([5]; trifluoroethanol (TFE), 23 °C, organic solvent or mixture): 7 to 12 mg/mL (≈ 14.5 to 24.9 mM)
- solubility ([5]; water, 23 °C, water): < 6 mg/mL
